Assay [1] addresses T1, Fatty-acid amide hydrolase 1 (Homo sapiens, UniProt O00519).
T1 sequence (O00519 whole entry): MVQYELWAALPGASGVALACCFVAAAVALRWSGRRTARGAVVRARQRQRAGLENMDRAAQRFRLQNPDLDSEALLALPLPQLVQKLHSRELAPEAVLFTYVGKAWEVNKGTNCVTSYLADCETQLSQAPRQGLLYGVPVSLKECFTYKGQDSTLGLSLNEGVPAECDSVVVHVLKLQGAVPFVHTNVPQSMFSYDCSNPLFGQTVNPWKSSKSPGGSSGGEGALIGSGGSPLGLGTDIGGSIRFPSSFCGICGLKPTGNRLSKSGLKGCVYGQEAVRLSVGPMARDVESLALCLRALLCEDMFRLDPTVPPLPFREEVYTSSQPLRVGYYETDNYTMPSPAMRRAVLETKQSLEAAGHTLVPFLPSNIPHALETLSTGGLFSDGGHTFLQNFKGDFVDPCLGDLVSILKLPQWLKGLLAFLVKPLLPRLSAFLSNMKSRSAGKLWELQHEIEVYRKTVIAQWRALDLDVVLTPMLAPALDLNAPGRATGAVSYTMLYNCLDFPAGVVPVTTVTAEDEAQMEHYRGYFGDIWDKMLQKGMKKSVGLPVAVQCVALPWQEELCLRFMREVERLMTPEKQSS
As to the kind of experiment: Inhibition of recombinant human C-terminal FLAG-tagged FAAH expressed in HEK293T cells preincubated for 4 hrs followed by addition of FP-TAMRA probe and measured after 20 mins by SDS-PAGE based fluorescence assay. The format is cell-based.

Assay [2] concerns the target T1, Fatty-acid amide hydrolase 1. As to the kind of experiment: Inhibition of FAAH (unknown origin).

pIC50: −log10 of the molar value.

`CN(C(=O)n1cnc(-c2ccc[n+]([O-])c2)c1)C1CCCCC1`: in assay [1], the negative-log IC50 (pIC50) is 7.31.

`CCCCC/C=C\C/C=C\C/C=C\C/C=C\CCCC(=O)NCCc1c[nH]c2ccc(O)cc12`: the pIC50 in assay [2] is 5.25.

(Values after ChEMBL document CHEMBL4321797, “New Approaches to Cancer Therapy: Combining Fatty Acid Amide Hydrolase (FAAH) Inhibition with Peroxisome Proliferator-Activated Receptors (PPARs) Activation” (J Med Chem, 2019).)
